# Calls of active or inactive are those of the source. No rule for the calls is given here.
# Test system: rodent carcinogenicity bioassays, tumor incidence
# Test: CCRIS carcinogenicity studies
# In short: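 NCI-built, expert-reviewed records of carcinogenicity and related test outcomes (mutagenicity, tumor promotion/inhibition) compiled from published and report sources, historical span 1985-2011, not updated.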
smiles,measurement,setting,value
Cc1c(N)nc([C@H](CC(N)=O)NC[C@H](N)C(N)=O)nc1C(=O)N[C@H](C(=O)N[C@H](C)[C@@H](O)[C@H](C)C(=O)N[C@H](C(=O)NCCc1nc(-c2nc(C(=O)NCCCN[C@@H](C)c3ccccc3)cs2)cs1)[C@@H](C)O)[C@@H](O[C@@H]1O[C@@H](CO)[C@@H](O)[C@H](O)[C@@H]1O[C@H]1O[C@H](CO)[C@@H](O)[C@H](OC(N)=O)[C@@H]1O)c1cnc[nH]1,carcinogen call,"Species: RAT, Strain/Sex: SPRAGUE-DAWLEY/FEMALE, Route: SUBCUTANEOUS, Dose: 0, 0.32, 0.63, 1.25, 2.50, 5.0 MG/KG IN SALINE 1/WK FOR 10 WK THEN 1/2 WK FOR 12 WK, 19 WK OR LIFETIME (STUDY DURATION:, Dose: 0, 0.32, 0.63, 1.25, 2.50, 5.0 MG/KG IN SALINE 1/WK FOR 10 WK THEN 1/2 WK FOR 12 WK, 19 WK OR LIFETIME (STUDY DURATION:, Tumor Site: Type of Lesion: KIDNEY: MALIGNANT OR BENIGN TUMOR, INJECTION SITE: MALIGNANT TUMOR",active; positive
same,carcinogen call,"Species: RAT, Strain/Sex: SPRAGUE-DAWLEY/MALE, Route: SUBCUTANEOUS, Dose: 0, 0.32, 0.63, 1.25, 2.50, 5.0 MG/KG IN SALINE 1/WK FOR 10 WK THEN 1/2 WK FOR 12 WK, 19 WK OR LIFETIME (STUDY DURATION:, Dose: 0, 0.32, 0.63, 1.25, 2.50, 5.0 MG/KG IN SALINE 1/WK FOR 10 WK THEN 1/2 WK FOR 12 WK, 19 WK OR LIFETIME (STUDY DURATION:, Tumor Site: Type of Lesion: KIDNEY: MALIGNANT OR BENIGN TUMOR, INJECTION SITE: MALIGNANT TUMOR",active; positive
C[C@H]1O[C@@H]1Cl,carcinogen call,"Species: MOUSE, Strain/Sex: ICR/FEMALE, Route: DERMAL, Dose: 10 MG IN 0.1 ML ACETONE 3/WK FOR LIFE, Tumor Site: Type of Lesion: INTEGUMENTARY SYSTEM (SKIN): PAPILLOMA, SQUAMOUS CELL CARCINOMA",active; positive
same,carcinogen call,"Species: MOUSE, Strain/Sex: ICR/FEMALE, Route: SUBCUTANEOUS, Dose: 1 MG IN 0.05 ML TRICAPRYLIN 1/WK FOR LIFE, Tumor Site: Type of Lesion: INJECTION SITE: FIBROSARCOMA, CARCINOMA",active; positive
Nc1ccc(Cc2ccc(N)c(Cl)c2)cc1Cl,carcinogen call,"Species: MOUSE, Route: ORAL, Tumor Site: Type of Lesion: BLOOD VESSELS, LIVER",active; positive
same,carcinogen call,"Species: RAT, Route: ORAL, Tumor Site: Type of Lesion: LIVER, LUNG",active; positive
same,carcinogen call,"Species: RAT, Route: SUBCUTANEOUS, Tumor Site: Type of Lesion: LIVER, LUNG",active; positive
same,carcinogen call,"Species: RAT, Strain/Sex: STRAIN-CD/FEMALE, Route: ORAL, Dose: 0, 1000 PPM IN PROTEIN-ADEQUATE (23%) DIET FOR 2 YR (STUDY DURATION: 2 YR), Tumor Site: Type of Lesion: LUNG: ADENOCARCINOMA",active; positive
same,carcinogen call,"Species: RAT, Strain/Sex: STRAIN-CD/FEMALE, Route: ORAL, Dose: 0, 1000 PPM IN PROTEIN-DEFICIENT (7%) DIET FOR 16 MO (STUDY DURATION: 16 MO), Tumor Site: Type of Lesion: LUNG: ADENOCARCINOMA, MAMMARY GLAND: ADENOCARCINOMA",active; positive
same,carcinogen call,"Species: RAT, Strain/Sex: STRAIN-CD/MALE, Route: ORAL, Dose: 0, 1000 PPM IN PROTEIN-ADEQUATE (23%) DIET FOR 2 YR (STUDY DURATION: 2 YR), Tumor Site: Type of Lesion: LUNG: ADENOCARCINOMA",active; positive
same,carcinogen call,"Species: RAT, Strain/Sex: STRAIN-CD/MALE, Route: ORAL, Dose: 0, 1000 PPM IN PROTEIN-DEFICIENT (7%) DIET FOR 16 MO (STUDY DURATION: 16 MO), Tumor Site: Type of Lesion: LUNG: ADENOCARCINOMA, LIVER: HEPATOCELLULAR ADENOMA, HEPATOCELLULAR CARCINOMA",active; positive
Oc1c(Cl)c(Cl)c(Cl)c(Cl)c1Cl,carcinogen call,"Species: MOUSE, Strain/Sex: B6C3F1/FEMALE, Route: ORAL, Dose: 0, 100, 200, 600 PPM DOWCIDE EC-7 IN FEED FOR 103 WK (STUDY DURATION: 103 WK), Dose: 0, 100, 200, 600 PPM DOWCIDE EC-7 IN FEED FOR 103 WK (STUDY DURATION: 103 WK), Tumor Site: Type of Lesion: ADRENAL GLAND/MEDULLA: PHEOCHROMOCYTOMA: ADRENAL GLAND/MEDULLA: PHEOCHROMOCYTOMA OR MALIGNANT PHEOCHROMOCYTOMA, CIRCULAT",active; positive
same,carcinogen call,"Species: MOUSE, Strain/Sex: B6C3F1/FEMALE, Route: ORAL, Dose: 0, 100, 200 PPM TECHNICAL GRADE PENTACHLOROPHENOL IN FEED FOR 103 WK (STUDY DURATION: 103 WK), Dose: 0, 100, 200 PPM TECHNICAL GRADE PENTACHLOROPHENOL IN FEED FOR 103 WK (STUDY DURATION: 103 WK), Tumor Site: Type of Lesion: LIVER: HEPATOCELLULAR ADENOMA OR CARCINOMA, CIRCULATORY SYSTEM: HEMANGIOSARCOMA",active; positive
same,carcinogen call,"Species: MOUSE, Strain/Sex: B6C3F1/MALE, Route: ORAL, Dose: 0, 100, 200, 600 PPM DOWCIDE EC-7 IN FEED FOR 103 WK (STUDY DURATION: 103 WK), Dose: 0, 100, 200, 600 PPM DOWCIDE EC-7 IN FEED FOR 103 WK (STUDY DURATION: 103 WK), Tumor Site: Type of Lesion: ADRENAL GLAND/MEDULLA: PHEOCHROMOCYTOMA, ADRENAL GLAND/MEDULLA: PHEOCHROMOCYTOMA OR MALIGNANT PHEOCHROMOCYTOMA, LIVER: H, Tumor Site: Type of Lesion: ADRENAL GLAND/MEDULLA: PHEOCHROMOCYTOMA, ADRENAL GLAND/MEDULLA: PHEOCHROMOCYTOMA OR MALIGNANT PHEOCHROMOCYTOMA, LIVER: H",active; positive
same,carcinogen call,"Species: MOUSE, Strain/Sex: B6C3F1/MALE, Route: ORAL, Dose: 0, 100, 200 PPM TECHNICAL GRADE PENTACHLOROPHENOL IN FEED FOR 103 WK (STUDY DURATION: 103 WK), Dose: 0, 100, 200 PPM TECHNICAL GRADE PENTACHLOROPHENOL IN FEED FOR 103 WK (STUDY DURATION: 103 WK), Tumor Site: Type of Lesion: ADRENAL GLAND/MEDULLA: PHEOCHROMOCYTOMA, LIVER: HEPATOCELLULAR ADENOMA, LIVER: HEPATOCELLULAR ADENOMA OR CARCINOMA, Tumor Site: Type of Lesion: ADRENAL GLAND/MEDULLA: PHEOCHROMOCYTOMA, LIVER: HEPATOCELLULAR ADENOMA, LIVER: HEPATOCELLULAR ADENOMA OR CARCINOMA",active; positive
same,carcinogen call,"Species: MOUSE, Strain/Sex: B6C3F1/MALE, Route: ORAL, Dose: 0, 1200 PPM IN DIET FOR 13 WK (STUDY DURATION: 42 WK)",inactive; negative
same,carcinogen call,"Species: RAT, Strain/Sex: F344/N/FEMALE, Route: ORAL, Dose: 0, 200, 400, 600 PPM IN DIET FOR 105 WK (STUDY DURATION: 105 WK), Dose: 0, 200, 400, 600 PPM IN DIET FOR 105 WK (STUDY DURATION: 105 WK)",inactive; negative
same,carcinogen call,"Species: RAT, Strain/Sex: F344/N/FEMALE, Route: ORAL, Dose: 0, 1000 PPM IN DIET FOR 52 WK (STUDY DURATION: 105 WK)",inactive; negative
same,carcinogen call,"Species: RAT, Strain/Sex: F344/N/MALE, Route: ORAL, Dose: 0, 200, 400, 600 PPM IN DIET FOR 105 WK (STUDY DURATION: 105 WK), Dose: 0, 200, 400, 600 PPM IN DIET FOR 105 WK (STUDY DURATION: 105 WK)",inactive; negative
same,carcinogen call,"Species: RAT, Strain/Sex: F344/N/MALE, Route: ORAL, Dose: 0, 1000 PPM IN DIET FOR 52 WK (STUDY DURATION: 105 WK), Tumor Site: Type of Lesion: SKIN: KERATOACANTHOMA",active; positive
O=S(O)S(=O)(=O)O,carcinogen call,"Species: RAT, Strain/Sex: WISTAR/FEMALE, Route: ORAL, Dose: 0, 0.125, 0.25, 0.5, 1, 2% IN DIET FOR 104 WK (STUDY DURATION: 104 WK), Dose: 0, 0.125, 0.25, 0.5, 1, 2% IN DIET FOR 104 WK (STUDY DURATION: 104 WK)",inactive; negative
same,carcinogen call,"Species: RAT, Strain/Sex: WISTAR/FEMALE, Route: ORAL, Dose: 0, 0.125, 0.25, 0.5, 1, 2% IN DIET FOR 104 WK TO OFFSPRING OF RATS ADMINISTERED THE SAME DOSES IN THEIR DIETS (STUDY DUR, Dose: 0, 0.125, 0.25, 0.5, 1, 2% IN DIET FOR 104 WK TO OFFSPRING OF RATS ADMINISTERED THE SAME DOSES IN THEIR DIETS (STUDY DUR",inactive; negative
same,carcinogen call,"Species: RAT, Strain/Sex: WISTAR/MALE, Route: ORAL, Dose: 0, 0.125, 0.25, 0.5, 1, 2% IN DIET FOR 104 WK (STUDY DURATION: 104 WK), Dose: 0, 0.125, 0.25, 0.5, 1, 2% IN DIET FOR 104 WK (STUDY DURATION: 104 WK)",inactive; negative
same,carcinogen call,"Species: RAT, Strain/Sex: WISTAR/MALE, Route: ORAL, Dose: 0, 0.125, 0.25, 0.5, 1, 2% IN DIET FOR 104 WK TO OFFSPRING OF RATS ADMINISTERED THE SAME DOSES IN THEIR DIETS (STUDY DUR, Dose: 0, 0.125, 0.25, 0.5, 1, 2% IN DIET FOR 104 WK TO OFFSPRING OF RATS ADMINISTERED THE SAME DOSES IN THEIR DIETS (STUDY DUR",inactive; negative
Cc1cc(-c2ccc(N/N=C3\C=Cc4c(S(=O)(=O)O)cc(S(=O)(=O)O)c(N)c4C3=O)c(C)c2)ccc1N/N=C1\C=Cc2c(S(=O)(=O)O)cc(S(=O)(=O)O)c(N)c2C1=O,carcinogen call,"Species: RAT, Route: INTRAPERITONEAL, Tumor Site: Type of Lesion: LIVER",active; positive
